The values that follow come from publication PMC7558026, “Exploring and applying the substrate promiscuity of a C-glycosyltransferase in the chemo-enzymatic synthesis of bioactive C-glycosides” (Nature Communications, 2020).

Several values for one entry are separate records, joined by “and”; a condition that tells them apart may be missing. Identical values can stand only once. Some results are limits rather than exact numbers.

The target of one assay is AbCGT (Aloe vera, UniProt A0A7G9P699). Put plainly: Glycosyltransferase activity assay, purified AbCGT (wild type) with aglycon acceptors and UDP-Glc. In kind it is biochemical, Aloe barbadensis. As to conditions: fig. 2b, purified AbCGT, redesigned substrates; Reaction-1 to -3.
The test system of assay [1] is E. coli-AbCGT. Put plainly: Glycosylation by whole-cell biocatalyst E. coli-AbCGT. In kind it is cell-based. As to conditions: fig. 2c, 30 °C, M9 medium, 12 h, 0.25 mM acceptor; Reaction-1 to -3. The method, then:
The induced cells of E. coli-AbCGT were harvested by centrifugation at 3000 × g for 5 min at 4 °C and washed with ddH2O. Pellets were resuspended by M9 minimal medium containing 2% glucose to appropriate cell density (OD600 = 3.0). Prepared whole-cell biocatalyst of E. coli-AbCGT (500 μL) was then added to 2-mL tubes containing various acceptors at a concentration of 0.25 mM. The mixture was incubated at 30 °C for 12 h with shaking (200 rpm). The reactions were analyzed using GT activity assays as described above. For quantification, three parallel assays were routinely carried out.

For another assay, the target named is T1, SGLT2 (Homo sapiens, UniProt P31639).
T1 construct: Human full-length SGLT2 cDNA (NM_003041.3) was synthesized; expressed in transfected cells; host or cells: HEK293, retroviral transduction with pMSCVpuro-SGLT2, puromycin selected
T1 sequence (P31639 1-672): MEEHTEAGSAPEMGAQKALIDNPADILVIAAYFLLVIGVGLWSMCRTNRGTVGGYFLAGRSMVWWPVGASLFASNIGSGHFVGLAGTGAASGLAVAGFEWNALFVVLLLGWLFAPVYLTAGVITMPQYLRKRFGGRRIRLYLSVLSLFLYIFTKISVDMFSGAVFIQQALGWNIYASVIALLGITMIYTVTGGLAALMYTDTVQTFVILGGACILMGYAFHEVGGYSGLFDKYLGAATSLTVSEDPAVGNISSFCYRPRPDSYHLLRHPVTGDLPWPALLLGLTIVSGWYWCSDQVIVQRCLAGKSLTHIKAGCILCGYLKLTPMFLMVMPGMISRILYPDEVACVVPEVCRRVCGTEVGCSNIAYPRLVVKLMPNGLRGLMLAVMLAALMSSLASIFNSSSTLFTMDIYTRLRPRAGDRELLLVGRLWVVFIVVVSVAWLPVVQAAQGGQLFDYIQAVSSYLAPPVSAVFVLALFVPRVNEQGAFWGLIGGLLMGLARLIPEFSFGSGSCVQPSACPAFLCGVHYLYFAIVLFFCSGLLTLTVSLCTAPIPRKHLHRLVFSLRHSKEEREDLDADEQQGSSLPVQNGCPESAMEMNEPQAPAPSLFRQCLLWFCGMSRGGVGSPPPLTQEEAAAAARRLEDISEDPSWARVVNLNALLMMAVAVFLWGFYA
In words: 1-NBDG uptake in HEK293 cells stably expressing SGLT2. In kind it is cell-based. As to conditions: triplicate; for inhibition at 10 µM: HEK293, compound at 10 μM, read-out: SGLT2 inhibitory rates; for SGLT2 inhibitory rates: compound at 10 μM, 10 µM.

Assay [2] concerns E. coli-AbCGT. Put plainly: Optimization of cell density and substrate concentration in whole-cell biocatalysis. In kind it is cell-based. Conditions: replicates 1-3; for Conversion rate of 46: substrate 150 mg L^‒1; for conversion rate: OD600 = 13.0. The method, then:
To study the optimal cell density, the reaction was performed in various cell densities with OD600 values in the range of 1.0−15.0 and a substrate concentration of 150 mg L^‒1. […] For quantification, three parallel assays were routinely carried out.

For the next assay, the target named is T2, SGLT1 (Homo sapiens, UniProt P13866).
T2 construct: The full-length SGLT1 cDNA was obtained by PCR with forward primer; expressed in transfected cells
T2 sequence (P13866 1-664): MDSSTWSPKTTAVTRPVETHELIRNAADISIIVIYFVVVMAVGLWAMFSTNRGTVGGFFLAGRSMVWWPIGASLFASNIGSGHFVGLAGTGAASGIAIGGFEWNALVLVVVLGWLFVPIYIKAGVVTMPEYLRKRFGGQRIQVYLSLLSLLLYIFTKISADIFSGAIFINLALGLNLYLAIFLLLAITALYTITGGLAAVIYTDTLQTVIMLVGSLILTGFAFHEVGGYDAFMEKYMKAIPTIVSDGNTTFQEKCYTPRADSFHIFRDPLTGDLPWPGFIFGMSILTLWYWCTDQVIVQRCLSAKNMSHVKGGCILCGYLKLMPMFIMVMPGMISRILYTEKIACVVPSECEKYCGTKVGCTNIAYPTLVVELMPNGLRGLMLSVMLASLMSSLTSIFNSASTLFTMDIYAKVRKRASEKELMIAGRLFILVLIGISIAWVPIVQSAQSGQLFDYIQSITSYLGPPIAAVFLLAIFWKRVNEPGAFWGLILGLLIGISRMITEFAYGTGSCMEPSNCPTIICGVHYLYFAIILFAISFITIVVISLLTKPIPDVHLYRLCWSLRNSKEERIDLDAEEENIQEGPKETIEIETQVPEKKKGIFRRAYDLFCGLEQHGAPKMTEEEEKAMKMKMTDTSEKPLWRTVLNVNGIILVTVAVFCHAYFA
In words: 1-NBDG uptake in HEK293 cells stably expressing SGLT1. In kind it is cell-based. As to conditions: HEK293, compound at 10 μM; triplicate; read-out: SGLT1 inhibitory rates.

Sequence of AbCGT (A0A7G9P699 entry or part of it): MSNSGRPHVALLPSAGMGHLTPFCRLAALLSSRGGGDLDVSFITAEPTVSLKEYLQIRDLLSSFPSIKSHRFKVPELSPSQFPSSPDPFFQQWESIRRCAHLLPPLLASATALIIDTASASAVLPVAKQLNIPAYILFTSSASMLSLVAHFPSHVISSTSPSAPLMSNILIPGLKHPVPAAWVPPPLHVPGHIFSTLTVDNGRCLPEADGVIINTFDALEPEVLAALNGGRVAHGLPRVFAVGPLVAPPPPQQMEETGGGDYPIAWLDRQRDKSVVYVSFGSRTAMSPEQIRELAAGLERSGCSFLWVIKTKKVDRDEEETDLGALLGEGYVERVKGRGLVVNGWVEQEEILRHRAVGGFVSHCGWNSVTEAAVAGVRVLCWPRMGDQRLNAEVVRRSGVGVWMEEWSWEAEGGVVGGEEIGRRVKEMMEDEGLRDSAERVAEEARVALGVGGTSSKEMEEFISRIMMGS

`Oc1cc(O)c(CC2CCCCC2)c(O)c1` [Compound 37]: on AbCGT, the “conversion rates, Purified Enzyme” value was determined as 100%. Moreover, in the assay on E. coli-AbCGT [1], the “conversion rates, Whole cells” value amounted to 100%.
`Oc1cc(O)c(Cc2ccccc2)c(O)c1` [Compound 38, 1-benzylbenzene-2,4,6-triol]: at AbCGT, the “conversion rates, Purified Enzyme” value is 100%. In addition, the inhibition at 10 µM at SGLT2 stood at 4.2%. In addition, the “conversion rates, Whole cells” value in the assay with E. coli-AbCGT [1] is 44.3% and 46.1% and 53.7%.
With `Oc1cc(O)c(CCc2ccccc2)c(O)c1` [Compound 39, 1-phenethylbenzene-2,4,6-triol], on AbCGT, the “conversion rates, Purified Enzyme” value came out at 100%. Also, on SGLT2, the inhibition at 10 µM amounted to 0.2%. The “conversion rates, Whole cells” value with E. coli-AbCGT [1] is 7.2% and 13.4% and 9.4%.
As for `Oc1cc(O)c(CCCCc2ccccc2)c(O)c1` [Compound 40], the “conversion rates, Purified Enzyme” value at AbCGT was found to be 100%. In the assay on E. coli-AbCGT [1], the “conversion rates, Whole cells” value turned out to be 100%.
`Oc1cc(O)c(Cc2ccsc2)c(O)c1` [Compound 42]: the “conversion rates, Purified Enzyme” value on AbCGT was 100%. Moreover, the inhibition at 10 µM at SGLT2 was 2.7%. The “conversion rates, Whole cells” value in the assay on E. coli-AbCGT [1] was 73% and 84.5% and 79.6%.
Take `Oc1cc(O)c(CCc2c[nH]c3ccccc23)c(O)c1` [Compound 43]: at AbCGT, the “conversion rates, Purified Enzyme” value is 100%. Also, the inhibition at 10 µM on SGLT2 is 12.9%. For the same molecule, the “conversion rates, Whole cells” value in the assay with E. coli-AbCGT [1] is 87.2% and 96% and 92.6%.
As for `Cc1ccc(Cc2c(O)cc(O)cc2O)cc1` [Compound 46], the “conversion rates, Purified Enzyme” value at AbCGT stood at 100%. Moreover, the inhibition at 10 µM at SGLT2 was determined as 10.8%. In addition, the “conversion rates, Whole cells” value in the assay with E. coli-AbCGT [1] was 89% and 80.2% and 82.3%. Moreover, the “Conversion rate of 46” value was 2% and 4% (2×) in the assay on E. coli-AbCGT [2] (OD600nm 1.0); 13% and 11% and 15% in the assay on E. coli-AbCGT [2] (OD600nm 3.0); 22% (2×) and 19% in the assay with E. coli-AbCGT [2] (OD600nm 5.0); 26% and 28% and 32% in the assay on E. coli-AbCGT [2] (OD600nm 7.0); 33% (2×) and 29% in the assay with E. coli-AbCGT [2] (OD600nm 9.0); 38% and 34% and 33% in the assay with E. coli-AbCGT [2] (OD600nm 11.0). Further, the “Conversion rate of 46” value in the assay with E. coli-AbCGT [2] (OD600nm 13.0) is 38%; in the assay on E. coli-AbCGT [2] (OD600nm 15.0), 43% and 35% (2×). For the same molecule, the conversion rate with E. coli-AbCGT [2] (concentration of 46 57.5 mg/L) is 100%; in the assay with E. coli-AbCGT [2] (concentration of 46 115 mg/L), 100%; in the assay with E. coli-AbCGT [2] (concentration of 46 172.5 mg/L), 100%; in the assay on E. coli-AbCGT [2] (concentration of 46 230 mg/L), 100%; in the assay with E. coli-AbCGT [2] (concentration of 46 287.5 mg/L), 89% and 92% and 93%; with E. coli-AbCGT [2] (concentration of 46 345 mg/L), 27.5% and 20% and 29.8%. For the same molecule, the conversion rate with E. coli-AbCGT [2] (concentration of 46 460 mg/L) was 13.6% and 13.9% and 14%; in the assay on E. coli-AbCGT [2] (concentration of 46 575 mg/L), 8.8% and 8.5% and 8%.
On to `CCCCc1ccc(Cc2c(O)cc(O)cc2O)cc1` [Compound 47], for which the “conversion rates, Purified Enzyme” value at AbCGT is 100%. Further, on SGLT2, the inhibition at 10 µM came out at 0.2%. For the same molecule, the “conversion rates, Whole cells” value with E. coli-AbCGT [1] was 2.7% and 3.2% and 3.1%.
On to `CCCCc1ccc(Cc2c(O)cc(O)c(C3OC(CO)C(O)C(O)C3O)c2O)cc1` (centres unmarked) [Compound 47a], for which, on SGLT1, the inhibition at 10 µM came out at 17.1%. For the same molecule, on SGLT2, the inhibition at 10 µM is over 96% and the SGLT2 inhibitory rates was 100%.
As to `Oc1cc(O)c(Cc2ccc(F)cc2)c(O)c1` [Compound 48], the “conversion rates, Purified Enzyme” value on AbCGT is 100%. The inhibition at 10 µM on SGLT2 turned out to be 0.2%. In the assay on E. coli-AbCGT [1], the “conversion rates, Whole cells” value was 86% and 92.2% and 88.8%.
Consider `Oc1cc(O)c(Cc2ccc(Cl)cc2)c(O)c1` [Compound 49], for which the “conversion rates, Purified Enzyme” value at AbCGT is recorded as 100%. The inhibition at 10 µM on SGLT2 was 0.2%. Besides, the “conversion rates, Whole cells” value in the assay on E. coli-AbCGT [1] was 0.8% and 0.9%.
Regarding `OCC1OC(c2c(O)cc(O)c(Cc3ccc(Cl)cc3)c2O)C(O)C(O)C1O` (centres unmarked) [Compound 49a], on SGLT1, the inhibition at 10 µM turned out to be 34.7%. On SGLT2, the inhibition at 10 µM is over 96% and the SGLT2 inhibitory rates came to 98.5%.
For `Oc1cc(O)c(Cc2ccc(-c3ccccc3)cc2)c(O)c1` [Compound 50], the “conversion rates, Purified Enzyme” value at AbCGT is on record as 100%. At SGLT2, the inhibition at 10 µM came out at 0.2%. In the assay on E. coli-AbCGT [1], the “conversion rates, Whole cells” value came out at 0%.
With `OCC1OC(c2c(O)cc(O)c(Cc3ccc(-c4ccccc4)cc3)c2O)C(O)C(O)C1O` (centres unmarked) [Compound 50a], the inhibition at 10 µM at SGLT1 was 27.1%. Moreover, at SGLT2, the inhibition at 10 µM was over 96% and the SGLT2 inhibitory rates amounted to 96.3%.
Turning to `Oc1ccc(CCc2c(O)cc(O)cc2O)cc1` [Compound 51], the “conversion rates, Purified Enzyme” value at AbCGT came out at 100%. Also, the inhibition at 10 µM at SGLT2 came to 3.3%. For the same molecule, the “conversion rates, Whole cells” value in the assay with E. coli-AbCGT [1] is 87.9% and 92.2% and 95.8%.
Regarding `Oc1cc(O)c(CCc2ccc3c(c2)CCO3)c(O)c1` [Compound 52], the “conversion rates, Purified Enzyme” value on AbCGT came to 100%. Besides, the inhibition at 10 µM on SGLT2 was found to be 0.8%. Further, the “conversion rates, Whole cells” value in the assay on E. coli-AbCGT [1] was 84.1% and 72.7% and 80.3%.
Turning to `Oc1cc(O)c(CCc2ccc(F)cc2)c(O)c1` [Compound 53], the “conversion rates, Purified Enzyme” value at AbCGT amounted to 100%. Besides, the inhibition at 10 µM at SGLT2 was found to be 0.2%. In addition, the “conversion rates, Whole cells” value with E. coli-AbCGT [1] is 66.8% and 61% and 58.3%.
As to `Oc1cc(O)c(CCc2ccc(Cl)cc2)c(O)c1` [Compound 54], the “conversion rates, Purified Enzyme” value on AbCGT is reported as 100%. The inhibition at 10 µM on SGLT2 is 0.2%. Also, in the assay on E. coli-AbCGT [1], the “conversion rates, Whole cells” value was 39.8% and 44.7% and 47.4%.
